# Like-named read-outs stand apart in the source and are kept apart here.
# Tests used:
# [1] = PAMPA (parallel artificial membrane permeability assay, ran by Analiza); assay type: in vitro ADME; details: for Papp: PAMPA
# Text: In this work, in order to compare the properties of fluorinated carboxylic acid surrogates with those of other commonly used nonfluorinated bioisosteres, we present the design and synthesis of a focused set of matched molecular pairs (MMPs), which include examples of substituted alcohols and phenols featuring one or more fluorine atoms, and the characterization of these compounds for key physicochemical properties such as acidity (pKa), lipophilicity (logD7.4 and permeability (logPapp) in a parallel artificial membrane permeability assay (PAMPA). The data presented allow for an assessment of the impact of incorporation of fluorine on the physicochemical properties of carboxylic acid surrogates.
# [2] = logD7.4 by potentiometric titration (Sirius T3); details: n-octanol/aqueous buffer
# [3] = pKa by potentiometric titration (Sirius T3)
# [4] = supplement csv; previously described derivatives A-Y; ref [3]-[5]; cited from earlier work
# [5] = supplement csv; previously described phenylpropionic acid derivatives A-Y; ref [3]-[5]; cited from earlier work
# [6] = class by Pe, read-out: PAMPA Permeability
# [7] = pH 7.4, logD7.4, n-octanol / aqueous buffer pH 7.4, Table 1
# [8] = pH 7.4, logD7.4, supplement csv, compounds 1, 2, 3-10
# [9] = pKa (anilinium/aniline), anilinium/aniline pKa, Table 1
# [10] = pKa, acidic group (carboxylic acid, alcohol or phenol), Table 1
# [11] = read-out: PAMPA Pe (effective permeability)
# [12] = difference between experimental and calculated pKa, experimental vs ChemAxon
# [13] = pKa (anilinium/aniline), supplement csv, first value of cell, anilinium/aniline
compound,measurement,setting,value
O=C(O)CCc1ccccc1 [Compound 1],Papp,[1]; [6],> 1.5 ×10⁻⁶ cm/s
Nc1ccc(CCC(=O)O)cc1 [Compound 2],PAMPA % retention (membrane retention),[1],0.05%
same,Papp,[1]; [6],< 1.5 ×10⁻⁶ cm/s
same,logD,[2]; [7],-2.13
same,logD,[2]; [8],-2.13
same,pKa,[3]; [9],5.17
same,pKa,[3]; [10],4.12
Nc1ccc(CCC(O)(C(F)(F)F)C(F)(F)F)cc1 [Compound 3],PAMPA % retention (membrane retention),[1],0.171%
same,Papp,[1]; [6],> 1.5 ×10⁻⁶ cm/s
same,Papp,[1]; [11],12 ×10⁻⁶ cm/s
same,logD,[2]; [7],3.04
same,logD,[2]; [8],3.14
same,pKa,[3]; [12],1 to 1.7
same,pKa,[3]; [9],4.06
same,pKa,[3]; [13],4.88
same,pKa,[3]; [10],7.96
same,pKa,"[3]; pKa, supplement csv, acidic group, compounds 1, 2, 3-10",9.38
Nc1ccc(CCC(O)(C(F)F)C(F)F)cc1 [Compound 4],PAMPA % retention (membrane retention),[1],0.02%
same,Papp,[1]; [6],> 1.5 ×10⁻⁶ cm/s
same,Papp,[1]; [11],10.1 ×10⁻⁶ cm/s
same,logD,[2]; [7],1.46
same,logD,[2]; [8],1.46
same,pKa,[3]; [12],1 to 1.7
same,pKa,[3]; [9],4.79
same,pKa,[3]; [10],> 12
Nc1ccc(CCC(O)C(F)(F)F)cc1 (centres unmarked) [Compound 5],Papp,[1]; [6],> 1.5 ×10⁻⁶ cm/s
same,Papp,[1]; [11],11.7 ×10⁻⁶ cm/s
same,logD,[2]; [7],1.83
same,logD,[2]; [8],1.83
same,pKa,[3]; [9],4.72
same,pKa,[3]; [13],4.9
same,pKa,[3]; [10],11.7
Nc1ccc(CCC(O)C(F)F)cc1 (centres unmarked) [Compound 6],PAMPA % retention (membrane retention),[1],0.015%
same,Papp,[1]; [6],> 1.5 ×10⁻⁶ cm/s
same,Papp,[1]; [11],10.2 ×10⁻⁶ cm/s
same,logD,[2]; [7],0.92
same,logD,[2]; [8],0.92
same,pKa,[3]; [9],4.87
same,pKa,[3]; [10],> 12
Nc1ccc(Cc2cccc(O)c2C(F)(F)F)cc1 [Compound 7],PAMPA % retention (membrane retention),[1],0.195%
same,Papp,[1]; [6],> 1.5 ×10⁻⁶ cm/s
same,Papp,[1]; [11],13.8 ×10⁻⁶ cm/s
same,logD,[2]; [7],3.17
same,logD,[2]; [8],3.17
same,pKa,[3]; [9],4.69
same,pKa,[3]; [10],8.85
Nc1ccc(Cc2cccc(O)c2OC(F)(F)F)cc1 [Compound 8],PAMPA % retention (membrane retention),[1],0.36%
same,Papp,[1]; [6],> 1.5 ×10⁻⁶ cm/s
same,Papp,[1]; [11],8.63 ×10⁻⁶ cm/s
same,logD,[2]; [7],2.29
same,logD,[2]; [8],2.29
same,pKa,[3]; [9],4.58
same,pKa,[3]; [10],9.67
Nc1ccc(Cc2cccc(O)c2SC(F)(F)F)cc1 [Compound 9],Papp,[1]; [6],> 1.5 ×10⁻⁶ cm/s
same,Papp,[1]; [11],7.28 ×10⁻⁶ cm/s
same,logD,[2]; [7],2.72
same,logD,[2]; [8],2.72
same,pKa,[3]; [9],4.24
same,pKa,[3]; [10],9.51
Nc1ccc(Cc2cccc(O)c2[S+]([O-])C(F)(F)F)cc1 (centres unmarked) [Compound 10],PAMPA % retention (membrane retention),[1],0.24%
same,Papp,[1]; [6],> 1.5 ×10⁻⁶ cm/s
same,Papp,[1]; [11],10.5 ×10⁻⁶ cm/s
same,logD,[2]; [7],1.96
same,logD,[2]; [8],2
same,pKa,[3]; [9],4.21
same,pKa,[3]; [10],7.93
Oc1cccc(Cc2ccccc2)c1C(F)(F)F [Compound 32],logD,[2]; [7],4.29
same,pKa,"[3]; difference in Δ pKa between 32 and 7, Δ = isostere minus corresponding -COOH, 32 vs matched pair 7",0.46
same,pKa,[3]; [10],8.91
O=C(CCc1ccccc1)NO [Compound A1],pKa,[4],8.18
CC(=O)N(O)CCc1ccccc1 [Compound A2],pKa,[4],8.83
CONC(=O)CCc1ccccc1 [Compound B1],pKa,[4],9.47
CC(=O)NOCCc1ccccc1 [Compound B2],pKa,[4],9.58
NS(=O)(=O)CCc1ccccc1 [Compound G1],pKa,[4],10.04
CN(C)S(=O)(=O)NC(=O)CCc1ccccc1 [Compound H2],pKa,[4],5.79
same,logD7.4,[5],0.12
CC1(NS(=O)(=O)CCc2ccccc2)COC1 [Compound H5],pKa,[4],10.45
same,logD7.4,[5],1.58
CC(=O)NC1(CCc2ccccc2)CS(=O)(=O)C1 [Compound H6],pKa,[4],>12
same,logD7.4,[5],1.18
O=S(=O)(NC1(CCc2ccccc2)COC1)c1ccccc1 [Compound H8],pKa,[4],10.29
same,logD7.4,[5],2.76
CN(C)S(=O)(=O)NC1(CCc2ccccc2)COC1 [Compound H9],pKa,[4],11.02
same,logD7.4,[5],1.96
CS(=O)(=O)NC1(CCc2ccccc2)CSC1 [Compound H10],pKa,[4],10.45
same,logD7.4,[5],2.44
O=S(=O)(NC1(CCc2ccccc2)CSC1)c1ccccc1 [Compound H11],pKa,[4],>12
same,logD7.4,[5],2.96
CN(C)S(=O)(=O)NC1(CCc2ccccc2)CSC1 [Compound H12],pKa,[4],11.93
same,logD7.4,[5],2.83
CS(=O)(=O)NC1(CCc2ccccc2)C[S+]([O-])C1 (centres unmarked) [Compound H13],pKa,[4],9.87
same,logD7.4,[5],0.87
O=S(=O)(NC1(CCc2ccccc2)C[S+]([O-])C1)c1ccccc1 (centres unmarked) [Compound H14],logD7.4,[5],0.76
CN(C)S(=O)(=O)NC1(CCc2ccccc2)C[S+]([O-])C1 (centres unmarked) [Compound H15],pKa,[4],10.33
same,logD7.4,[5],1.45
CS(=O)(=O)NC1(CCc2ccccc2)CS(=O)(=O)C1 [Compound H16],pKa,[4],9.44
same,logD7.4,[5],1.03
O=S1(=O)CC(CCc2ccccc2)(NS(=O)(=O)c2ccccc2)C1 [Compound H17],pKa,[4],10.22
same,logD7.4,[5],1.89
CN(C)S(=O)(=O)NC1(CCc2ccccc2)CS(=O)(=O)C1 [Compound H18],pKa,[4],9.58
same,logD7.4,[5],1.82
CS(=O)(=O)Nc1cc(-c2ccccc2)on1 [Compound H19],pKa,[4],5.22
same,logD7.4,[5],-0.42
O=S(=O)(Nc1cc(-c2ccccc2)on1)c1ccccc1 [Compound H20],pKa,[4],6.62
same,logD7.4,[5],0.99
CN(C)S(=O)(=O)Nc1cc(-c2ccccc2)on1 [Compound H21],pKa,[4],5.62
same,logD7.4,[5],0.42
CS(=O)(=O)Nc1cn(-c2ccccc2)nn1 [Compound H22],pKa,[4],6.34
same,logD7.4,[5],0.06
O=S(=O)(Nc1cn(-c2ccccc2)nn1)c1ccccc1 [Compound H23],pKa,[4],5.93
same,logD7.4,[5],1.06
CN(C)S(=O)(=O)Nc1cn(-c2ccccc2)nn1 [Compound H24],pKa,[4],6.42
same,logD7.4,[5],0.69
O=C1C=C(O)CC1Cc1ccccc1 (centres unmarked) [Compound T1],pKa,[4],4.01
same,logD7.4,[5],-0.7
CC1=C(O)C(Cc2ccccc2)CC1=O (centres unmarked) [Compound T2],pKa,[4],4.47
same,logD7.4,[5],-0.33
O=C1CCC(O)=C1Cc1ccccc1 [Compound T3],pKa,[4],4.44
same,logD7.4,[5],-0.6
O=C1CCC(Cc2ccccc2)=C1O [Compound U1],pKa,[4],8.88
O=C1CC(c2ccccc2)C=C1O (centres unmarked) [Compound U2],pKa,[4],8.28
Oc1c(F)cc(Cc2ccccc2)cc1F [Compound W1],pKa,[4],7.19
Oc1c(F)ccc(Cc2ccccc2)c1F [Compound W2],pKa,[4],7.05
Oc1ccccc1SCc1ccccc1 [Compound W3],pKa,[4],9.06
same,logD7.4,[5],3.78
[O-][S+](Cc1ccccc1)c1ccccc1O (centres unmarked) [Compound W4],pKa,[4],7.7
O=S(=O)(Cc1ccccc1)c1ccccc1O [Compound W5],pKa,[4],7.12
OC1(CCc2ccccc2)CSC1 [Compound X1],pKa,[4],>12
[O-][S+]1CC(O)(CCc2ccccc2)C1 (centres unmarked) [Compound X2],pKa,[4],>12
O=[PH](O)CCc1ccccc1 [D],pKa,[4],1.98
O=S(O)CCc1ccccc1 [F],pKa,[4],2.1
CS(=O)(=O)NC(=O)NCc1ccccc1 [I],pKa,[4],5.04
same,logD7.4,[5],-1.19
c1ccc(CCc2nnn[nH]2)cc1 [K],pKa,[4],5.09
same,logD7.4,[5],-0.36
O=C1NC(=O)C(Cc2ccccc2)S1 (centres unmarked) [L],pKa,[4],6.19
O=C1NC(=O)C(Cc2ccccc2)O1 (centres unmarked) [M],pKa,[4],5.86
O=c1[nH]c(CCc2ccccc2)no1 [N],pKa,[4],5.73
O=c1[nH]c(CCc2ccccc2)ns1 [O],pKa,[4],6.5
S=c1[nH]c(CCc2ccccc2)no1 [Q],pKa,[4],3.58
Oc1cc(Cc2ccccc2)on1 [R],pKa,[4],5.36
O=C1CC(=O)C(Cc2ccccc2)N1 (centres unmarked) [S],pKa,[4],6.08
OC1(CCc2ccccc2)COC1 [Y],pKa,[4],>12

# Reference: PMC11003450, “Structure-property relationships of fluorinated carboxylic acid bioisosteres” (Bioorganic & medicinal chemistry letters, 2023)
